# Results published in patent US6407081B1, “Method for inhibiting cytokine production by cells” (Previsan AG, priority 1997, dated 2002).
# Assays:
# [1] = tested on: Peripheral mononuclear blood cells (PMBC); assay: Cytotoxic effects on the PBMC cultures of Examples 1 and 2; format: cell-based, human; conditions: at the ADA concentrations reducing cytokine production in Examples 1 and 2
# IL-2 [2] = assay: In vivo serum IL-2 release after anti-CD3 145-2C11 mAb (Example 5); set-up: species or system BALB/C mice; conditions: ADA 100 mg/kg single injection one day before 145-2C11 mAb; sera at 2, 4, 8, 24 h; FIG. 1
# Procedure: A single intraparenteral injection of azodicarbon-amide (ADA) at a dose of 100 mg/kg bodyweight or corresponding carrier is made into BALB/C mice (Harlan, Zeist, Netherlands) one day before intraparenteral inoculation of 25 μg of hamster 145-2C11 mAb, an anti-mouse CD3 mAb which brings about massive in vivo activation of polyclonal T cells, resulting in systemic cytokine release. Sera are collected 2, 4, 8 and 24 hours after the anti-CD3 treatment and the cytokine (IL-2, IL-4) levels are determined by an ELISA test (Genzyme).
# FIGS. 1 and 2 are graphs showing, on the y-axis, the quantities of IL-2 and IL-4 in the serum as a mean of 5 test animals. […] The empty bars show the results obtained with the carrier and the shaded bars show those obtained with prior ADA treatment.
# skin allograft = assay: Skin allograft rejection (Example 6); format: in vivo, C57BL/6 mice; conditions: ADA 50 mg/kg daily injection vs carrier control; FIG. 3
# Procedure: Skin grafts, which are well known to be highly dependent upon T cells, are prepared from the tails of four female C57BL/6. CH-2^bm12 mice (Jackson Laboratory, Bar Harbor, Me., USA). These grafts are grafted onto the sides of C57BL/6 mice (Harlan, Zeist, Netherlands). A dressing is applied around the hole. This dressing is removed 10 days later and the grafts are inspected daily. The test mice receive a daily intraparenteral injection of 50 mg/kg bodyweight of ADA and the controls receive an equivalent quantity of the corresponding carrier until acute rejection is observed.
# On the graph in FIG. 3, survival of the skin graft is plotted, in %, on the y-axis, while the number of days since the transplant is plotted on the x-axis.
# IL-5 [3] = assay: IL-5 production by purified CD4 T lymphocytes stimulated by PMA + anti-CD28 (Example 4); format: cell-based, human; conditions: for IL-5 in % relative to control: purified CD4 T lymphocytes, PMA + anti-CD28, 1 donor
# Procedure: Purified CD4 T lymphocytes (90% purity) stimulated by PMA (phorbol myristate acetate)+anti-CD28 antibodies from healthy donors are treated with various concentrations of ADA.
# (§1) In Examples 3 and 4, the results are stated as a percentage taking the medium without ADA as 100%. The concentrations corresponding to 100% are respectively 90,000 pg/ml for IL-2, 1100 pg/ml for IL-5, 1900 pg/ml for IFN-γ and 2870 pg/ml for TNF-α. The results are the mean of independent ELISA assays.
# IL-2 [4] = assay: IL-2 production by purified T lymphocytes (Example 3); format: cell-based, human; conditions: mean of 2 donors
# Procedure: PBMC from three healthy donors are purified by density gradient […] (LymphoPrep). The T lymphocytes are obtained from 15.10^6 PBMC incubated for 20 to 30 minutes in a waterbath at 37° C. with 0.8 ml of a mixture of LymphoKwik® (One Lambda, Inc., CA, USA). This latter substance is a mixture of complement and specific antibody for antigen units of the cell membrane which lyses the unwanted cells (B lymphocytes, monocytes, etc.). The cells are centrifuged and then washed twice.
# These cultures are treated with various concentrations of ADA.
# as §1
# IL-5 [5] = assay: IL-5 production by PHA-activated PBMC, ELISA (Example 1); format: cell-based, human; conditions: for production of IL-5 inhibited, on average: average of five donors, PBMC; for IL-5 content as a percentage of the control: PHA-activated PBMC, 72 h
# Procedure: Peripheral mononuclear blood cells (PMBC) from five healthy human donors are isolated in the conventional manner from 50 ml of their blood and then purified by density gradient centrifugation (Lymphoprep). The cells (5.10^6 cells/ml) are activated by 0.3 μg/ml of phytohaemagglutinin (PHA) and cultured for 72 hours at 37° C. in the presence of various concentrations of ADA (20, 10, 5, 1, 0.2 and 0.04 μg/ml). The culture medium consists of RPMI 1640 complemented with 10% foetal calf serum and glutamine and contains mercaptoethanol. The ADA solutions are prepared in dimethyl sulfoxide (DMSO), the working concentration of DMSO during the experiments being 0.1%. Said experiments are performed on 96 well plates (200 μl/well) and, once the plates have been centrifuged at 1500 revolutions per minute for 10 minutes, the supernatants are harvested and the IL-5 content thereof analysed by an ELISA immunoenzymatic assay.
smiles,measurement,setting,value
"NC(=O)N=NC(N)=O [ADA, azodicarbon-amide]",cytotoxic effects,[1],no cytotoxic effects
same,release of IL-2 into serum,IL-2 [2],significant reduction
same,rejection of the skin allograft,skin allograft,significantly delayed
same,production of IL-5,"IL-5 [3]; 20 μg/ml of ADA, donors of Examples 3 and 4",inhibited
same,IL-5 in % relative to control,IL-5 [3]; ADA 1 μg/ml,69 % relative to control
same,IL-5 in % relative to control,IL-5 [3]; ADA 5 μg/ml,45 % relative to control
same,IL-5 in % relative to control,IL-5 [3]; ADA 10 μg/ml,43 % relative to control
same,IL-5 in % relative to control,IL-5 [3]; ADA 20 μg/ml,38 % relative to control
same,IL-2 in % relative to control,IL-2 [4]; ADA 1 μg/ml,68 % relative to control
same,IL-2 in % relative to control,IL-2 [4]; ADA 5 μg/ml,27 % relative to control
same,IL-2 in % relative to control,IL-2 [4]; ADA 10 μg/ml,9 % relative to control
same,IL-2 in % relative to control,IL-2 [4]; ADA 20 μg/ml,3 % relative to control
same,"production of IL-5 inhibited, on average",IL-5 [5]; 0.2 μg/ml of ADA,45%
same,"production of IL-5 inhibited, on average",IL-5 [5]; 10 μg/ml of ADA,80%
same,"production of IL-5 inhibited, on average",IL-5 [5]; 20 μg/ml of ADA,90%
same,IL-5 content as a percentage of the control,"IL-5 [5]; ADA 0.04 μg/ml, Donor 1",83 % of control
same,IL-5 content as a percentage of the control,"IL-5 [5]; ADA 0.04 μg/ml, Donor 2",50 % of control
same,IL-5 content as a percentage of the control,"IL-5 [5]; ADA 0.04 μg/ml, Donor 3",58 % of control
same,IL-5 content as a percentage of the control,"IL-5 [5]; ADA 0.04 μg/ml, Donor 4",46 % of control
same,IL-5 content as a percentage of the control,"IL-5 [5]; ADA 0.04 μg/ml, Donor 5",55 % of control
same,IL-5 content as a percentage of the control,"IL-5 [5]; ADA 0.04 μg/ml, Mean of donors",58 % of control
same,IL-5 content as a percentage of the control,"IL-5 [5]; ADA 0.2 μg/ml, Donor 1",54 % of control
same,IL-5 content as a percentage of the control,"IL-5 [5]; ADA 0.2 μg/ml, Donor 2",42 % of control
same,IL-5 content as a percentage of the control,"IL-5 [5]; ADA 0.2 μg/ml, Donor 3",63 % of control
same,IL-5 content as a percentage of the control,"IL-5 [5]; ADA 0.2 μg/ml, Donor 4",57 % of control
same,IL-5 content as a percentage of the control,"IL-5 [5]; ADA 0.2 μg/ml, Donor 5",58 % of control
same,IL-5 content as a percentage of the control,"IL-5 [5]; ADA 0.2 μg/ml, Mean of donors",55 % of control
same,IL-5 content as a percentage of the control,"IL-5 [5]; ADA 1 μg/ml, Donor 1",48 % of control
same,IL-5 content as a percentage of the control,"IL-5 [5]; ADA 1 μg/ml, Donor 2",29 % of control
same,IL-5 content as a percentage of the control,"IL-5 [5]; ADA 1 μg/ml, Donor 3",57 % of control
same,IL-5 content as a percentage of the control,"IL-5 [5]; ADA 1 μg/ml, Donor 4",37 % of control
same,IL-5 content as a percentage of the control,"IL-5 [5]; ADA 1 μg/ml, Donor 5",49 % of control
same,IL-5 content as a percentage of the control,"IL-5 [5]; ADA 1 μg/ml, Mean of donors",44 % of control
same,IL-5 content as a percentage of the control,"IL-5 [5]; ADA 5 μg/ml, Donor 1",44 % of control
same,IL-5 content as a percentage of the control,"IL-5 [5]; ADA 5 μg/ml, Donor 2",2 % of control
same,IL-5 content as a percentage of the control,"IL-5 [5]; ADA 5 μg/ml, Donor 3",23 % of control
same,IL-5 content as a percentage of the control,"IL-5 [5]; ADA 5 μg/ml, Donor 4",31 % of control
same,IL-5 content as a percentage of the control,"IL-5 [5]; ADA 5 μg/ml, Donor 5",34 % of control
same,IL-5 content as a percentage of the control,"IL-5 [5]; ADA 5 μg/ml, Mean of donors",27 % of control
same,IL-5 content as a percentage of the control,"IL-5 [5]; ADA 10 μg/ml, Donor 1",29 % of control
same,IL-5 content as a percentage of the control,"IL-5 [5]; ADA 10 μg/ml, Donor 2",2 % of control
same,IL-5 content as a percentage of the control,"IL-5 [5]; ADA 10 μg/ml, Donor 3",28 % of control
same,IL-5 content as a percentage of the control,"IL-5 [5]; ADA 10 μg/ml, Donor 4",14 % of control
same,IL-5 content as a percentage of the control,"IL-5 [5]; ADA 10 μg/ml, Donor 5",31 % of control
same,IL-5 content as a percentage of the control,"IL-5 [5]; ADA 10 μg/ml, Mean of donors",21 % of control
same,IL-5 content as a percentage of the control,"IL-5 [5]; ADA 20 μg/ml, Donor 1",9 % of control
same,IL-5 content as a percentage of the control,"IL-5 [5]; ADA 20 μg/ml, Donor 2",2 % of control
same,IL-5 content as a percentage of the control,"IL-5 [5]; ADA 20 μg/ml, Donor 3",26 % of control
same,IL-5 content as a percentage of the control,"IL-5 [5]; ADA 20 μg/ml, Donor 4",5 % of control
same,IL-5 content as a percentage of the control,"IL-5 [5]; ADA 20 μg/ml, Donor 5",7 % of control
same,IL-5 content as a percentage of the control,"IL-5 [5]; ADA 20 μg/ml, Mean of donors",10 % of control
same,"IL-5 production, comparable tests in the absence of mercaptoethanol","IL-5 [5]; culture medium without mercaptoethanol, compared with Table 1",relatively similar results
